Here are results for 22 molecules from US9499493B2, “2,4-pyrimidinediamine compounds and their uses” (Rigel Pharmaceuticals, Inc., priority 2002, dated 2016).

Experiment [1] concerns cultured human mast cells (CHMC). The experiment can be described thus: CHMC low cell density IgE activation: tryptase assay. Conditions: anti-IgE. The format is cell-based. The method in brief: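 Read-out: tryptase released into supernatant, measured by substrate turnover over 30 min at RT. Low-density CHMC (1000-1500 cells/well, per donor degranulation activity) in MT buffer, 1 hr at 37° C, then anti-IgE challenge 30 min at 37° C.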

For experiment [2] the test system is unchanged. The experiment is described as follows: CHMC low cell density ionomycin activation: tryptase assay. The format is cell-based.

Molecules are shown by their SMILES. Some results are limits rather than exact numbers.

Usually IC50 stands for the point on the concentration scale where inhibition reaches its midpoint. Take `CCOC(=O)CNC(=O)Oc1cccc(Nc2nc(Nc3cccc(OCC(=O)NC)c3)ncc2F)c1` [R926918, N4-[3-[[N-(Ethoxycarbonylmethyl)amino]carbonyloxy]phenyl]-5-fluoro-N2-[3-[(N-methylamino)carbonylmethyleneoxy]phenyl]-2,4-pyrimidinediamine]: the IC50 is 2520 nM in experiment [1] and over 10000 nM in experiment [2].
For `CCNC(=O)Oc1cccc(Nc2nc(Nc3cccc(OCC(=O)NC)c3)ncc2F)c1` [R926919] the same measures were 1410 nM and over 10000 nM.
Turning to `CNC(=O)COc1cccc(Nc2ncc(F)c(Nc3ccc(C)c(C(F)(F)F)c3)n2)c1` [R926922, 5-Fluoro-N2-[3-[(N-methylamino)carbonylmethyleneoxy]phenyl]-N4-(4-methyl-3-trifluoromethylphenyl)-2,4-pyrimidinediamine], the IC50 in experiment [1] was 305 nM; in experiment [2], over 10000 nM.
Take `CNC(=O)COc1cccc(Nc2ncc(F)c(Nc3ccc(F)c(C)c3)n2)c1` [R926923, 5-Fluoro-N4-(4-fluoro-3-methylphenyl)-N2-[3-[(N-methylamino)carbonylmethyleneoxy]phenyl]-2,4-pyrimidinediamine]: the IC50 was 346 nM in experiment [1] and over 10000 nM in experiment [2].
With `COC(=O)COc1cc(Nc2ncc(F)c(Nc3cccc(O)c3)n2)cc(OCC(=O)OC)c1` [R926926, N2-[3,5-Bis(methoxycarbonylmethyleneoxy)phenyl]-5-fluoro-N4-(3-hydroxyphenyl)-2,4-pyrimidinediamine], the IC50 is 401 nM in experiment [1] and over 10000 nM in experiment [2].
For `COC(=O)COc1cc(O)cc(Nc2ncc(F)c(Nc3cccc(O)c3)n2)c1` [R926927, 5-Fluoro-N2-[3-hydroxy-5-(methoxycarbonylmethyleneoxy)phenyl]-N4-(3-hydroxyphenyl)-2,4-pyrimidinediamine], the IC50 in experiment [1] is 348 nM; in experiment [2], over 10000 nM.
The corresponding values for `CNC(=O)COc1cc(O)cc(Nc2ncc(F)c(Nc3cccc(O)c3)n2)c1` [R926929, 5-Fluoro-N2-[3-hydroxy-5-[(N-methylamino)carbonylmethyleneoxy]phenyl]-N4-(3-hydroxyphenyl)-2,4-pyrimidinediamine] are 1920 nM and over 10000 nM.
Consider `Cc1ccc(-c2ccccc2)cc1Nc1ncc(C)c(Nc2cc(-c3ccccc3)ccc2C)n1` [R935001, N2,N4-Bis[(2-methyl-5-phenyl)phenyl]-5-methyl-2,4-pyrimidinediamine], for which the IC50 in experiment [1] and in experiment [2] was over 10000 nM throughout.
Regarding `COc1ccc(Nc2ncc(C)c(Nc3ccc(OC)c(-c4ccccc4)c3)n2)cc1-c1ccccc1` [R935002, N2,N4-Bis[(4-methoxy-3-phenyl)phenyl]-5-methyl-2,4-pyrimidinediamine], the IC50 in experiment [1] and in experiment [2] was over 10000 nM each time.
Take `COc1cc(-c2ccccc2)c(C)cc1Nc1ncc(C)c(Nc2cc(C)c(-c3ccccc3)cc2OC)n1` [R935003, N2,N4-Bis[(4-phenyl-2-methoxy-5-methyl)phenyl]-5-methyl-2,4-pyrimidinediamine]: the IC50 in experiment [1] and in experiment [2] was over 10000 nM throughout.
Take `COc1ccc([C@@H](C)Nc2ncc(Br)c(N[C@H](C)c3ccc(OC)cc3)n2)cc1` [R935016, N2,N4-Bis[1(R)-4-methoxyphenylethyl]-5-bromo-2,4-pyrimidineamine]: the IC50 in experiment [1] and in experiment [2] was over 10000 nM throughout.
On to `Oc1cccc(Nc2nc(Nc3ccc(OCc4nc(-c5ccccc5)no4)cc3)ncc2F)c1` [R935134, 5-Fluoro-N4-(3-hydroxyphenyl)-N2-[4-(3-phenyl-1,2,4-oxadiazol-5-yl)methyleneoxyphenyl]-2,4-pyrimidinediamine], for which the IC50 in experiment [1] is 909 nM; in experiment [2], 1800 nM.
Turning to `CC(C)Oc1ccc(Nc2nc(Nc3ccc(OCc4nc(-c5ccccc5)no4)cc3)ncc2F)cc1` [R935135, 5-Fluoro-N4-(4-isopropoxyphenyl)-N2-[4-(3-phenyl-1,2,4-oxadiazol-5-yl)methyleneoxyphenyl]-2,4-pyrimidinediamine], the IC50 in experiment [1] is 10000 nM; in experiment [2] it was over 10000 nM.
Regarding `Fc1cnc(Nc2ccc(OCc3nc(-c4ccccc4)no3)cc2)nc1Nc1ccc2c(c1)OCCO2` [R935136, N4-(3,4-Ethylenedioxyphenyl)-5-fluoro-N2-[4-(3-phenyl-1,2,4-oxadiazol-5-yl)methyleneoxyphenyl]-2,4-pyrimidinediamine], the IC50 in experiment [1] came out at 952 nM; in experiment [2], 2130 nM.
`COC(=O)c1cc2cc(Nc3nc(Nc4ccc(OCc5nc(-c6ccccc6)no5)cc4)ncc3F)ccc2o1` [R935137, 5-Fluoro-N4-(2-methoxycarbonylbenzofura-5-yl)-N2-[4-(3-phenyl-1,2,4-oxadiazol-5-yl)methyleneoxyphenyl]-2,4-pyrimidinediamine]: the figures for the IC50 in experiment [1] and in experiment [2] were 10000 nM and over 10000 nM, respectively.
On to `CC(C)Oc1ccc(Nc2ncc(F)c(Nc3ccc(OCc4nc(-c5ccccc5)no4)cc3)n2)cc1` [R935139, 5-Fluoro-N2-(4-isopropoxyphenyl)-N4-[4-(3-phenyl-1,2,4-oxadiazol-5-yl)methyleneoxyphenyl]-2,4-pyrimidinediamine], for which the IC50 in experiment [1] was 846 nM; in experiment [2], over 10000 nM.
Turning to `Fc1cnc(Nc2ccc3c(c2)OCCO3)nc1Nc1ccc(OCc2nc(-c3ccccc3)no2)cc1` [R935140, N2-(3,4-Ethylenedioxyphenyl)-5-fluoro-N4-[4-(3-phenyl-1,2,4-oxadiazol-5-yl)methyleneoxyphenyl]-2,4-pyrimidinediamine], the values for the IC50 in experiment [1] and in experiment [2] were 275 nM and 959 nM, respectively.
In the case of `Cc1noc(COc2ccc(Nc3ncc(F)c(Nc4cccc(O)c4)n3)cc2)n1` [R935141, 5-Fluoro-N4-(3-hydroxyphenyl)-N2-[4-(3-methyl-1,2,4-oxadiazol-5-yl)methyleneoxyphenyl]-2,4-pyrimidinediamine], the IC50 is 727 nM in experiment [1] and over 10000 nM in experiment [2].
For the molecule `Cc1noc(COc2ccc(Nc3ncc(F)c(Nc4ccc(OC(C)C)cc4)n3)cc2)n1` [R935142, 5-Fluoro-N4-(4-isopropoxyphenyl)-N2-[4-(3-methyl-1,2,4-oxadiazol-5-yl)methyleneoxyphenyl]-2,4-pyrimidinediamine], the IC50 is 873 nM in experiment [1] and over 10000 nM in experiment [2].
The corresponding values for `Cc1noc(COc2ccc(Nc3ncc(F)c(Nc4ccc5c(c4)OCCO5)n3)cc2)n1` [R935143, N4-(3,4-Ethylenedioxyphenyl)-5-fluoro-N2-[4-(3-methyl-1,2,4-oxadiazol-5-yl)methyleneoxyphenyl]-2,4-pyrimidinediamine] are 573 nM and over 10000 nM.
In the case of `Cc1noc(COc2ccc(Nc3nc(Nc4ccc(OC(C)C)cc4)ncc3F)cc2)n1` [R935144, 5-Fluoro-N2-(4-isopropoxyphenyl)-N4-[4-(3-methyl-1,2,4-oxadiazol-5-yl)methyleneoxyphenyl]-2,4-pyrimidinediamine], the results for the IC50 in experiment [1] and in experiment [2] were 630 nM and over 10000 nM, respectively.
Consider `COC(=O)c1cc2cc(Nc3ncc(F)c(Nc4ccc(OCc5nc(C)no5)cc4)n3)ccc2o1` [R935146, 5-Fluoro-N2-(2-methoxycarbonylbenzofura-5-yl)-N4-[4-(3-methyl-1,2,4-oxadiazol-5-yl)methyleneoxyphenyl]-2,4-pyrimidinediamine], for which the values for the IC50 in experiment [1] and in experiment [2] were 3800 nM and over 10000 nM, respectively.
